In a melting point compilation (Tetko et al.; mined from patent text by program, amines drawn as free bases though some values may be those of a salt) one finds melting point data, which are given here for 85 compounds.

The structures appear in SMILES notation. Where only a bound is given, the exact number is not on record here.

The melting point is the temperature of the solid-liquid transition.

As to `Cc1cc(-c2cc(C(F)F)n3ncc(C(=O)Nc4cccc(S(=O)(=O)N5CCOCC5)c4)c3n2)ccc1C(F)(F)F`, the melting point worked out at 261 °C.
In the case of `CS(=O)(=O)Nc1ccc(OCC2CCN(c3ccncc3)CC2)cc1` it was 214 to 215 °C; in that of `COc1ccc2c(c1)c(CCNC(C)=O)cn2S(=O)(=O)c1ccc(C)cc1`, 132 to 133 °C; in that of `O=C(c1ccccc1)c1ccccc1N1C=NC(CCl)(C(=O)O)N1` (stereo not given), 90 to 93 °C.
`COc1ccc(-c2c([N+](=O)[O-])cnc3ccc(Cl)cc23)c(OC)c1OC` had a melting point of 114 to 116 °C.
In the case of `CC(=O)Nc1cc2c(cc1[N+](=O)[O-])OC(C)O2` (stereo not given) it was 112 to 113 °C.
The result for `CSc1nccc(Oc2ccc(NC(=O)c3cc(F)cc(N4CCCC4)c3)c3ccccc23)n1` reads 180 to 181 °C; that for `CSC1=C(c2cccc3sccc23)N2CCN=C2S1`, 104 to 107 °C.
For `Cc1nc(-c2ccc(C#N)cc2)sc1C(=O)N1CCO[C@@](Cn2cncn2)(c2ccc(F)cc2F)[C@H]1C`, the melting point is 150 to 160 °C.
In the case of `COc1ccc(C(=O)NCCc2cccs2)cc1` it was 109 to 111 °C.
In the case of `Cc1ccc(-n2nc(C(C)(C)C)cc2NC(=O)Nc2ccc(-c3c(C(N)=O)[nH]c4ccccc34)cc2)cc1`, the melting point is more than 260 °C.
In the case of `CCCc1c2nc(C(=O)O)cc(Cl)c2cc2c(=O)cc(C(=O)O)oc12` it was 336 to 338 °C; in that of `Oc1ccc2cc(Cc3c(Cc4ccccc4)sc4ccccc34)ccc2c1Br`, 110 to 112 °C; in that of `O=C(Cc1cccs1)NC1CN(C(C(=O)O)c2ccc(OC(=O)c3ccccc3)cc2)C1=O` (stereo not given), 129 to 131 °C.
The result for `CCCCCCCCCCCCCCCc1cc2c(C(=O)O)cccc2[nH]1` reads 114 to 117 °C; that for `O=C(O)c1ccc(Nc2cc3c4c(c2)CCCC4CCC3)cc1`, 204 to 205 °C; that for `O=C(O)C1CCc2c(c3ccccc3n2C(=O)C2CCCCC2)C1` (stereo not given), 157 to 159 °C.
Regarding `O=C(NCCOc1ccc(CC(Oc2ccc(-c3ccccn3)cc2)C(=O)O)cc1)c1ccc(-c2ccccn2)cc1` (stereo not given), the melting point was 98 to 101 °C.
`CNS(=O)(=O)c1ccc(Cl)c(C)c1Cl` showed a melting point of 118 °C.
The compound `Cc1ccc([N+](=O)[O-])cc1Nc1nccc(-c2cncnc2)n1` had a melting point of 200 to 203 °C.
The result for `Nc1nn2ccccc2c1N` reads 190 °C.
The result for `O=C(O)c1cc2c(c(C(=O)O)c1)NCCC2` reads 298 to 299 °C; that for `O=C1CCC(OCc2ccccc2)N1S(=O)(=O)c1ccccc1` (stereo not given), 80 to 81 °C.
The result for `c1ccc(C(c2ccccc2)(c2ccccc2)N2CCc3sccc3C2)cc1` reads 95 °C.
`O=c1[nH]c2ccccc2n1CCOC1CCCCO1` (stereo not given) registered a melting point of 115 °C.
`C[C@H](NC(=O)c1ccccc1)C(=O)CCl` had a melting point of 120 to 122 °C.
The result for `Cc1ccccc1-n1c(CF)nc2ccc([N+](=O)[O-])cc2c1=O` reads 155 to 158 °C.
The result for `O=C(F)[C@@H]1C[C@H](F)CN1C(=O)OCC1c2ccccc2-c2ccccc21` reads 127 to 128 °C; that for `N#CC(C#N)=C1N(CCCCN2CCCCC2)CCN1CCN1CCCCC1`, 78 to 79 °C; that for `CCOC(=O)c1[nH]c(C)nc1C`, 165 to 166 °C.
The result for `COC(=O)C1=C(C)NC(C)=C(C(=O)OCCBr)C1c1cccc(Cl)c1Cl` (stereo not given) reads 180 to 182 °C.
In turn, `COCCOc1c(S(C)(=O)=O)ccc(C(=O)O)c1C` came in with a melting point of 104 to 106 °C.
`FC(F)(F)c1cc(N2CCN(Cc3n[nH]c4ccccc34)CC2)cc(C(F)(F)F)c1`: the melting point was 155 to 156 °C.
The result for `Cc1nc2cnc3ccccc3c2n1CC(C)O` (stereo not given) reads 176 to 177 °C; that for `Cc1oc2c(NC(=O)c3c(Cl)ccc(Cl)c3C(=O)O)cccc2c1C`, 186 to 188 °C.
In the case of `COc1ccc(C)cc1NC(=O)Nc1ccc(N2CCN(C(=O)Nc3cc(OCC(O)CO)ccc3Cl)CC2)cc1` (stereo not given) it was 114 to 118 °C; in that of `CCc1cc2c(s1)-n1c(Cl)nnc1CN=C2c1ccccc1Cl`, 133 to 135 °C; in that of `COC(=O)C(Cc1ccc(C#N)cc1)C(=O)c1ccc(C#N)cc1` (stereo not given), 154 to 157 °C.
In turn, `C[C@H](C(=O)c1ccccc1F)n1ccn(-c2ccc(OC(F)(F)C(F)F)cc2)c1=O` came in with a melting point of 78 to 79 °C.
The result for `COc1ccc(S(=O)(=O)N2C(=O)C(c3ccccc3OC)(N3c4ccccc4C[C@H]3C(=O)N(C)C)c3cc(Cl)ccc32)c(OC)c1` (stereo not given in full) reads 167 °C; that for `COc1ccc(C(=O)Sc2ccccn2)cc1`, 73 °C.
The result for `CC(CN(C)C)N1c2ccccc2Sc2ccc(C(=O)NCC3CC3)cc21` (racemic) reads 90 °C.
Take `CCOC(=O)C1=C(C)NC2=C(C(=O)N(CCN(CC)CC)C2)C1c1ccccc1[N+](=O)[O-]` (stereo not given): the melting point lay within 187 to 188 °C.
In the case of `CCN(CC)CCOc1ccc(Nc2nccc(-c3cccnc3)n2)cc1` it was 87 to 89 °C.
`O=C(/C=C/c1ccc(S(=O)(=O)N2CCN(c3ccc([N+](=O)[O-])cc3)CC2)cc1)NO` showed a melting point of 199 to 200 °C.
The result for `O=C(O)Cn1ccn(C2CCc3ccccc3C2)c1=S` (stereo not given) reads 228 to 230 °C.
The result for `C[C@@H](SN1CCOCC1)[C@](O)(Cn1cncn1)c1ccc(F)cc1F` reads 119 to 121 °C; that for `O=C(CN1CCN(C(c2ccccc2)c2ccccc2)CC1)c1ccc(OCc2ccccc2)cc1`, 151 °C.
In the case of `CCN(c1ccc(C(=O)O)nn1)C(C)c1cc(Br)ccc1OCc1ccccc1` (stereo not given) it was 129 °C; in that of `CC(CCC(=O)OCc1ccccc1)C1CC=C2C3=C(CCC21C)C1(C)CCC(O)C(C)(C)C1CC3` (stereo not given), 118 to 119 °C.
Take `c1ccc(-c2cc(-c3ccc(C4CCCC4)cc3)sc2-c2ccccc2)cc1`: the melting point amounted to 150 °C.
The result for `CCOC(=O)c1c(C)[nH]c(CC)c1CC` reads 104 to 106 °C; that for `COC(=O)Cc1ccc(CNC(=O)C2Cc3ccccc3N2S(=O)(=O)c2ccc(-c3ccc(F)cc3Cl)cc2)cc1` (stereo not given), 70 °C.
As for `CCCCOC(=O)C(O)C1OC(n2cnc3c(N)ncnc32)C(O)C1O` (stereo not given), the melting point amounted to 167 °C.
Regarding `COc1cc2ccc(C(=O)O)cc2cc1OC`, the melting point is 245 to 247 °C.
Take `O=C(Nc1ccccc1)N(c1ccccc1)c1ccccc1`: the melting point was 131 °C.
In the case of `Cc1ccc(C)c(OCc2ccccc2C(=O)c2cc(C)no2)c1` it was 106 to 108 °C; in that of `Cc1cc2c(cc1OCCn1ccnc1)CC/C(=C\c1cccs1)C2=O`, 150 to 151 °C.
The result for `Cc1c(C)c2c(c(C)c1N)CC(C)(CN1CCC(O)(c3ccc(Cl)cc3)CC1)O2` (stereo not given) reads 118 to 120 °C; that for `O=CN1CCN(c2nc3cccc4c3n2CCC4)CC1`, 138 to 139 °C; that for `Cc1ccc(-c2c(C(=O)NCc3cc(C(F)(F)F)cc(C(F)(F)F)c3)n(CCCCO)c(=O)c3cnccc23)cc1`, 128 to 131 °C.
Compound `CCCCCCCCOc1ccc2c(c1CCC)OC(CCC(=O)O)(CCC(=O)O)CC2=O` displayed a melting point of 148 °C.
In the case of `CCCCc1nc2cccc(C(=O)OC)c2n1Cc1ccc(-n2cccc2C#N)cc1` it was 128 to 129 °C; in that of `CCCCN(CCCC)c1ccc(C=Cc2ccc(C=CC3=C(C#N)C(=C(C#N)C#N)OC3(c3ccccc3)C(F)(F)F)cc2)c(OC)c1` (stereo not given), 176 to 178 °C.
In the case of `O=c1c2ccccc2[nH]c2ccc(O)c(Cl)c12` it was 184 to 191 °C; in that of `O=C1c2ccccc2OCN1CCO[N+](=O)[O-]`, 49 to 51 °C; in that of `CC(C)(C)NS(=O)(=O)c1cn(CCOC2CCCCO2)c2ccccc12` (stereo not given), 125 to 132 °C.
The result for `CC(C)C[C@H](NC(=O)[C@@H]1CCC(=O)N1C(=O)OCc1ccccc1)C(=O)OC(C)(C)C` reads 130 to 131 °C.
`CC(C)=Cn1ncc(OCc2ccc(I)nc2)c(Cl)c1=O` displayed a melting point of 141 to 142 °C.
In the case of `Cc1cc(C)c(CP(=O)(c2ccccc2)c2ccccc2)c(-c2ccc(F)c(C)c2)c1` it was 109 to 111 °C.
In the case of `Cc1ccccc1C(=O)Nc1ncc([N+](=O)[O-])s1`, the melting point is 228 to 230 °C.
Turning to `CNC(=O)C1=CC(C)(C)Oc2ccc([N+](=O)[O-])cc21`, the melting point lay within 166 to 168 °C.
In the case of `COC(=O)C1=C(C)NC(C)=C(C(=O)OCCN2CCN(c3cccc(Cl)c3)CC2)C1c1cccc([N+](=O)[O-])c1` (stereo not given) it was 65 to 68 °C; in that of `c1ccc2c(c1)ncc1nc(C3CCC3)[nH]c12`, 191 to 192 °C.
The result for `Cc1cccc(NC(=O)NC2N=C(c3ccccc3F)c3ccccc3N(CCOC(=O)N3CC4CCC(CC4)C3)C2=O)c1` (racemic) reads 169 to 171 °C; that for `COC(=O)c1nsc2ccc(-n3c(=O)cc(C(F)(F)F)n(C)c3=O)cc12`, 153 to 156 °C; that for `CCCCOc1nc2cc(C)nn2c2c1cnc1c2cnn1CC`, 103 to 104 °C.
In the case of `CC1(C)COc2ccc(C[C@H](N)[C@H](O)c3cccc(Cl)c3)cc21` (racemic), the melting point fell in the range of 83 to 86 °C.
As to `CN=C1N(C)C(=O)CN1c1ccccc1`, the melting point lay within 116 to 118 °C.
In turn, `O=C1Nc2ccc(-c3ccc(Cl)cc3)cc2C1=NO` displayed a melting point of 236 to 237 °C.
The result for `OCc1ccc(-c2ccc3nc(-c4ccccc4)cn3c2)cc1` reads 238 to 240 °C; that for `CCOC(=O)CN(CCOc1cc2cc3c(Nc4cc(OC)c(Cl)cc4C)c(C#N)cnc3cc2cc1OCC)CC(=O)OCC`, 70 to 71 °C.
`CCCCC(OC)c1nc2c(N)nc3ccccc3c2n1CC(C)C` (stereo not given) registered a melting point of 125 to 128 °C.
Consider `O=C(O)CCC(=O)c1ccc2[nH]c3ncc(Cl)cc3c2c1`, for which the melting point worked out at 243 °C.
The result for `c1ccc(-c2coc3cc4c(cc23)CCC4)cc1` reads 43 to 46 °C.
